Test [1] has as its target T1, NPR-11 (Caenorhabditis elegans, UniProt Q18179).
T1 sequence (Q18179 1-402): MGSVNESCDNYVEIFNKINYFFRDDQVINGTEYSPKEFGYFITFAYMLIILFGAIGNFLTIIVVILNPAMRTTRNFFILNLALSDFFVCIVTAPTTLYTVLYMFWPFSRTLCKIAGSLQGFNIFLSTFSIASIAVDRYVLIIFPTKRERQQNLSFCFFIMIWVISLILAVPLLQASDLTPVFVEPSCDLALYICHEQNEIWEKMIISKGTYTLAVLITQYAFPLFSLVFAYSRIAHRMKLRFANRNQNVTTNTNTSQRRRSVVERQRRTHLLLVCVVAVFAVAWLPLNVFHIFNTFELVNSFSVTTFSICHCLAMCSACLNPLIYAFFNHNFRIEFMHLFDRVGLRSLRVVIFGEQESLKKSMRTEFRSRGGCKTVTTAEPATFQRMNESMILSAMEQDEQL
Conditions: read-out: inhibition binding constant Ki; TAM-FLP-34-1 as fluorescent tracer; ref [35]; cited from earlier work.

For test [2], the target named is T2, Nluc::NPR-11 (Caenorhabditis elegans, UniProt Q18179).
T2 construct: expressed in transfected cells; host or cells: transgenic C. elegans (extrachromosomal array, npr-11 knockout background), incised young adult worms
Kind of test: biochemical. It counts as binding, C. elegans. Here is the method:
(§1) All measurements were conducted using synchronized young adult worms (1 day post L4). Individuals were washed twice with HBSS (Hanks’ balanced salt solution with 25 mM HEPES, pH 7.4, 37 °C) and the number of worms/ μl was calculated.
For luminescence measurements of intact worms, animals (1; 10; 50; 100 or 500) were directly transferred into the wells of a white flat-bottom 384-well plate in 50 μl HBSS buffer. Worms to be cut were pre-washed with M9 + 0.1% Tween to avoid sticking of worms to the dish and subsequently transferred in 2 ml of HBSS. Incisions were made in the middle of the body with a scalpel blade and worms were immediately afterwards transferred with a glass pipette into HBSS buffer on ice. For mechanically cracking, a worm suspension was homogenized in tubes with 150 μl HBSS and six glass beads (Ø = 3 mm) using with a Precellys homogenizer (Bertin instruments, France) for 40 s at 5000 rpm. Samples were placed on ice until further usage. […]
Luminescence (L) and fluorescence (F) were detected with a microplate plate reader (Tecan Spark) using the following filter set: donor = 430–470 nm, acceptor = 550–700 nm with 1000 ms integration time. BRET was calculated by dividing F values by L values. […]

Test [3] concerns the target T1, NPR-11. Kind of test: cAMP reporter gene assay, transfected HEK293 cells (Fig. S3B). It counts as cell-based, C. elegans. The arrangement: expressed in transfected cells; host or cells: HEK293 cells, co-transfected with reporter plasmid pGL4.29 [luc2P/CRE/Hygro]. Here is the method: All in vitro experiments were carried out using either HEK293 cells (Homo sapiens, embryonic kidney, DSMZ (German Collection of Microorganisms and Cell Cultures) ACC 305) or COS-7 cells (African green monkey, cercopithecus aethiops, kidney, DSMZ (German Collection of Microorganisms and Cell Cultures) ACC 60). HEK293 cells were kept in Dulbecco’s Modified Eagle’s Medium (DMEM) with Ham’s F-12 (v/v) and 15% (v/v) heat-inactivated fetal calf serum (FCS), while COS-7 cells were cultured in DMEM with 10% (v/v) FCS and 1% (v/v) Penicillin-Streptomycin. All cells were kept at 37 °C under a humidified atmosphere (5% CO2).
NPR-11 activation was read out in the Gi/o pathway by a cAMP reporter gene assay in transiently transfected HEK293 cells as described previously. Briefly, HEK293 cells were grown to 70% confluency and transiently co-transfected with the receptor plasmid (2 μg) and the reporter gene plasmid pGL4.29 [luc2P/CRE/Hygro] (Promega; 2 μg) with MetafectenePro (Biontex). Cells were then re-seeded into 384-well plates. On the next day, the medium was removed, and the cells were stimulated with peptide solution (20 μl) containing 5 μM forskolin (stimulating intracellular cAMP levels) in DMEM and incubated for 4 h. Luciferase substrate OneGlo in lysis buffer (Promega) was added and incubated for 5 min. Luminescence was measured in a microplate reader (Tecan Spark). […]
(In a reporter assay the amount or activity of a reporter protein is the signal.)

For test [4], the system named is NPR-11::Nluc. The test can be described thus: Enhanced bystander BRET in vivo, NPR-11::Nluc and CAAX::mNG (Fig. 4C). The arrangement: species or system C. elegans. The procedure:
Luminescence levels depended on the used strain, reaching (without ligand) approximately 2000 AU in Nluc::npr-11 animals and up to 32,000 AU in Nluc::lat-1 expressing worms. For enhanced bystander BRET analyses, 30 cut worms (APR716 and APR718) in 50 μl HBSS buffer were incubated for 10 min with 10 μl of Nano-Glo Live Cell Reagent (5x stock). Luminescence and fluorescence were measured once prior to peptide stimulation. Afterwards, FLP-34-1 (final concentration 5 μM) or H2O with 0.5% BSA and 2.5% DMSO as control were added to each well and luminescence and fluorescence was measured over the course of 80 min. The acceptor filter for this setting was altered to 505–605 nm, while the donor filter remained at 430–470 nm, as before.

Test [5] deals with T2, Nluc::NPR-11. Kind of test: biochemical. The format is binding, C. elegans. The procedure:
as §1
For luminescence measurements of intact worms, animals (1; 10; 50; 100 or 500) were directly transferred into the wells of a white flat-bottom 384-well plate in 50 μl HBSS buffer. Worms to be cut were pre-washed with M9 + 0.1% Tween to avoid sticking of worms to the dish and subsequently transferred in 2 ml of HBSS. Incisions were made in the middle of the body with a scalpel blade and worms were immediately afterwards transferred with a glass pipette into HBSS buffer on ice. For mechanically cracking, a worm suspension was homogenized in tubes with 150 μl HBSS and six glass beads (Ø = 3 mm) using with a Precellys homogenizer (Bertin instruments, France) for 40 s at 5000 rpm. Samples were placed on ice until further usage.
For BRET binding assays in vivo, the nanoluciferase (Nluc) was applied as energy donor and either peptides labeled with the TAM fluorophore or the mNeonGreen fluorescent protein fused to a receptor served as acceptor.
30 Nluc-expressing worms with incisions in 50 μl BRET buffer were incubated with dissolving buffer or peptide solutions of final concentrations ranging from 0.05–10 μM in a 384-well plate. During a 25 min incubation with gentle shaking, 10 μl Nano-Glo Live Cell Reagent (N2011, Promega, USA) of a 5x stock were added according to manufacturer’s instructions after 15 min to each well. Competition-binding assays were performed similarly, but additionally, unlabeled peptide (final concentrations 0.016–10 μM) was pipetted into each well and 5 μl of a 10x stock Nano-Glo Live cell reagent was applied after 15 min.
Luminescence (L) and fluorescence (F) were detected with a microplate plate reader (Tecan Spark) using the following filter set: donor = 430–470 nm, acceptor = 550–700 nm with 1000 ms integration time. BRET was calculated by dividing F values by L values. For each experiment, the background signal of donor-only cells was subtracted, such that the BRET ratio at 0 μM ligand equals 0.00. In Fig. 3B (left) and Fig. 3D, the mean of n = 4 (NPR-11) or n = 3 (LAT-1) independent, individually background-corrected single experiments is presented.
This is another data set of the same source.

As a reminder, the Ki is a measure of affinity in units of concentration, obtained from inhibition or displacement. What is called EC50 is the midpoint of the concentration-response curve. Usually Kd stands for the free concentration of one partner at which half of the binding sites on the other are occupied at equilibrium, for simple one-to-one binding.

Residues, ends and D or L forms follow the SMILES beside them. No end group written: not given here. *: point of attachment. 5TAMRA = CN(C)c1ccc2c(c1)Oc1cc(N(C)C)ccc1C21OC(=O)c2cc(C(=O)*)ccc21

As for ADISTFASAINNAGRLRY-NH2 [FLP-34-1], the Ki in test [1] was 107 nM; in test [2], 1100 nM. The 50% effective concentration (EC50) in test [3] is 2.3 nM. Also, in test [4] (5 μM FLP-34-1), the “time after which BRET increases again” value is listed as over 70 min. The “change of bystander BRET signal over time” value in test [4] (5 μM FLP-34-1 vs untreated controls) was “decrease of BRET signal”.
In the case of `CC[C@H](C)[C@H](NC(=O)[C@H](C)NC(=O)[C@H](CO)NC(=O)[C@H](C)NC(=O)[C@H](Cc1ccccc1)NC(=O)[C@@H](NC(=O)[C@H](CO)NC(=O)[C@@H](NC(=O)[C@H](CC(=O)O)NC(=O)[C@H](C)NC(=O)c1ccc2c(c1)C(=O)OC21c2ccc(N(C)C)cc2Oc2cc(N(C)C)ccc21)[C@@H](C)CC)[C@@H](C)O)C(=O)N[C@@H](CC(N)=O)C(=O)N[C@@H](CC(N)=O)C(=O)N[C@@H](C)C(=O)NCC(=O)N[C@@H](CCCNC(=N)N)C(=O)N[C@@H](CC(C)C)C(=O)N[C@@H](CCCNC(=N)N)C(=O)N[C@@H](Cc1ccc(O)cc1)C(N)=O` [TAM-FLP-34-1] (5TAMRA-ADISTFASAINNAGRLRY-NH2), the Kd in test [5] is 1400 nM. The response in test [3] was half-maximal at 0.5 nM (EC50).

The values are drawn from PMC8805316, “NanoBRET in C. elegans illuminates functional receptor interactions in real time” (BMC Molecular and Cell Biology, 2022).
